The source of these data is PubChem BioAssay AID624129 (Sanford-Burnham Center for Chemical Genomics, 2012).

Structures are written as SMILES. pIC50: −log10 of the molar value. Active and inactive are the calls of the source. No rule for the calls is given here. Bounds are passed on as bounds.

What all share (experiment): potency against CXCR6 with APJ panel – cell-based, beta-arrestin, DiscoveRx, uHTS hits, dose response (AID 624129)
In experiment [1] the target is Apelin receptor (Homo sapiens) (UniProt P35414). The conditions noted are these: CXCR6 beta-arrestin (DiscoveRx) antagonist cell assay, APJ.
Experiment [2] concerns the target Beta-galactosidase (Escherichia coli) (UniProt Q8VNN2). Conditions: CXCR6 beta-arrestin (DiscoveRx) antagonist cell assay, b-galactosidase; for IC50: dose range 1; for pIC50: dose range 1, mean IC50 across replicates.
Experiment [3] has as its target C-C chemokine receptor type 6 (Homo sapiens) (UniProt P51684). Conditions: CXCR6 beta-arrestin (DiscoveRx) antagonist cell assay.
Experiment [4] addresses C-X-C chemokine receptor type 6 (Homo sapiens) (UniProt O00574). Conditions: CXCR6 beta-arrestin (DiscoveRx) antagonist cell assay.
The mark [5] stands for this setting: dose range 1, mean IC50 across replicates.
Setting [6] is: CCR6, dose range 1, mean IC50 across replicates.
Setting [7] is: CXCR6, dose range 1, mean IC50 across replicates.

Chain of C-X-C chemokine receptor type 6 (Homo sapiens) (O00574 whole entry, looked up): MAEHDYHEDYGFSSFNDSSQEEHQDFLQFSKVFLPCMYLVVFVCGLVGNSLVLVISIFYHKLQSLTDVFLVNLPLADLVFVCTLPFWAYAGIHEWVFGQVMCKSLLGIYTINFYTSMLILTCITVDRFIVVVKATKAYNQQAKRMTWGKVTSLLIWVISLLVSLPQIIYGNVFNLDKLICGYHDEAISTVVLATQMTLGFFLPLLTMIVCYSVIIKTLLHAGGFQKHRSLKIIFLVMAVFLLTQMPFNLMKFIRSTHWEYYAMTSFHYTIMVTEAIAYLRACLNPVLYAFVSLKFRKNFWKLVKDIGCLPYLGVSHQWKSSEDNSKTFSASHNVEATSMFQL
Chain of Beta-galactosidase (Escherichia coli) (Q8VNN2 whole entry, looked up): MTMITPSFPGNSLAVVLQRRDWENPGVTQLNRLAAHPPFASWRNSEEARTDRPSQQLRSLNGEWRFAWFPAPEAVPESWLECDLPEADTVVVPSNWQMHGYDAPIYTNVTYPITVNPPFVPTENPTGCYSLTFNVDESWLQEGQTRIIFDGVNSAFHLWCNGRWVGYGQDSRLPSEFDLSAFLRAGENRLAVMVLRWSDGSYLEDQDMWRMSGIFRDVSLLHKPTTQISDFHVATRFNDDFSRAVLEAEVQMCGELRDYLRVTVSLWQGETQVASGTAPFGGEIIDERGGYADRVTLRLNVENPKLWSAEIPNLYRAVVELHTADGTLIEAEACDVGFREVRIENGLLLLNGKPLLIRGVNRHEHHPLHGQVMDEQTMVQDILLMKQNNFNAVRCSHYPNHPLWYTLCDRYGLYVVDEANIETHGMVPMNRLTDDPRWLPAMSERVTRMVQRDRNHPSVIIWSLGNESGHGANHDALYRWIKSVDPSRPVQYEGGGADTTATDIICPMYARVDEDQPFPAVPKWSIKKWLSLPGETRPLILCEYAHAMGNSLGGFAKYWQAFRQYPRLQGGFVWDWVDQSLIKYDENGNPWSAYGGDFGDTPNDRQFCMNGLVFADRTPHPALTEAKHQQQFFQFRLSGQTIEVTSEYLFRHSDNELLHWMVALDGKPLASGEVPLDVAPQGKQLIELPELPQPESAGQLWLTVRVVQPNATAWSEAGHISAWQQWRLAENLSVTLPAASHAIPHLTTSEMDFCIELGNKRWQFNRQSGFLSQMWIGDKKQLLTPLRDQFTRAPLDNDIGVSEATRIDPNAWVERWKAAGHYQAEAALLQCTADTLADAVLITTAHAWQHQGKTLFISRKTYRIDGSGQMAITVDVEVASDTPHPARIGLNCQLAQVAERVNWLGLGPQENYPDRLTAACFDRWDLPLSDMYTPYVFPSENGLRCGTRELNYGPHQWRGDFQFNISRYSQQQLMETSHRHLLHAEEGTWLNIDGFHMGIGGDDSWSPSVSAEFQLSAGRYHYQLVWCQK

Regarding `Cc1[nH]n(-c2ccccc2)c(=S)c1C=NCCCN=Cc1c(C)[nH]n(-c2ccccc2)c1=S`, the pIC50 in experiment [1] (dose range 1) was 5.61; in experiment [1] (setting [5]) it was 5.51; in experiment [1] (run 2, dose range 1) it was 5.49; in experiment [1] (run 3, dose range 1) it was 5.45; in experiment [2], less than 4.10; in experiment [3] (CCR6, dose range 1) it was 6.00. Besides, the negative logarithm of the IC50 (pIC50) was 5.84 in experiment [3] (setting [6]); 5.73 in experiment [3] (CCR6, run 2, dose range 1); 5.72 in experiment [4] (CXCR6, dose range 1); 5.81 in experiment [4] (setting [7]); 5.97 in experiment [4] (CXCR6, run 1, dose range 2); 5.68 in experiment [4] (CXCR6, run 2, dose range 1). In experiment [4] (CXCR6, run 2, dose range 2), this compound had a pIC50 of 5.94. For the same compound, the IC50 in experiment [2] is > 80 µM (inactive).
With `COCc1cc(=O)[nH]c(Nc2nc3ccc(C)cc3o2)n1`, the pIC50 in experiment [1] (dose range 1) is 5.38; in experiment [1] (setting [5]) it was 5.12; in experiment [1] (run 2, dose range 1) it was less than 4.10; in experiment [1] (run 3, dose range 1), 4.96; in experiment [2], less than 4.10; in experiment [3] (CCR6, dose range 1), 5.40. The pIC50 is 5.34 in experiment [3] (setting [6]); 5.29 in experiment [3] (CCR6, run 2, dose range 1); 5.44 in experiment [4] (setting [7]); 5.48 in experiment [4] (CXCR6, run 1, dose range 2); less than 4.10 in experiment [4] (CXCR6, run 2, dose range 1); 5.41 in experiment [4] (CXCR6, run 2, dose range 2). The IC50 in experiment [2] was > 80 µM (inactive).
For `CCOc1ccc(N(CC(=O)N/N=C/c2ccccn2)S(=O)(=O)c2ccc(Cl)cc2)cc1`, the pIC50 in experiment [1] (dose range 1) was 4.84; in experiment [1] (setting [5]) it was 4.85; in experiment [1] (run 2, dose range 1), less than 4.10; in experiment [1] (run 3, dose range 1), 4.86; in experiment [2], less than 4.10; in experiment [3] (CCR6, dose range 1), 4.94. Also, the pIC50 in experiment [3] (setting [6]) is 4.90; in experiment [3] (CCR6, run 2, dose range 1) it was 4.86; in experiment [4] (setting [7]), 4.57; in experiment [4] (CXCR6, run 1, dose range 2), 4.98; in experiment [4] (CXCR6, run 2, dose range 1) it was 4.21; in experiment [4] (CXCR6, run 2, dose range 2) it was 4.92. Also, the IC50 in experiment [2] was > 80 µM (inactive). Also, in experiment [4] (CXCR6, dose range 1), the IC50 entry is “inactive”.
`O=[N+]([O-])c1ccc(Sc2cccc3cccnc23)c([N+](=O)[O-])c1`: the negative logarithm of the IC50 (pIC50) in experiment [1] (dose range 1) is 5.52; in experiment [1] (setting [5]) it was 5.43; in experiment [1] (run 2, dose range 1), 5.37; in experiment [1] (run 3, dose range 1), 5.41; in experiment [2] it was less than 4.10; in experiment [3] (CCR6, dose range 1), 5.48. Besides, the pIC50 in experiment [3] (setting [6]) was 5.38; in experiment [3] (CCR6, run 2, dose range 1), 5.29; in experiment [4] (CXCR6, dose range 1) it was 5.30; in experiment [4] (setting [7]) it was 5.40; in experiment [4] (CXCR6, run 1, dose range 2) it was 5.50; in experiment [4] (CXCR6, run 2, dose range 1), 5.33. For the same compound, in experiment [4] (CXCR6, run 2, dose range 2), the pIC50 is 5.50. In experiment [2], the IC50 is > 80 µM (inactive).
Turning to `CCOC(=O)c1c(C)oc2c1c(C=NCc1ccccn1)c(O)c1ccccc12`, the negative logarithm of the IC50 (pIC50) in experiment [1] (dose range 1) is 4.91; in experiment [1] (setting [5]) it was 4.91; in experiment [1] (run 2, dose range 1), less than 4.10; in experiment [1] (run 3, dose range 1), less than 4.10; in experiment [2] it was less than 4.10; in experiment [3] (CCR6, dose range 1) it was 5.15. The pIC50 in experiment [3] (setting [6]) was 5.25; in experiment [3] (CCR6, run 2, dose range 1) it was 5.37; in experiment [4] (CXCR6, dose range 1) it was 5.38; in experiment [4] (setting [7]), 5.45; in experiment [4] (CXCR6, run 1, dose range 2), 5.81; in experiment [4] (CXCR6, run 2, dose range 1), 5.17. Moreover, the pIC50 in experiment [4] (CXCR6, run 2, dose range 2) is 5.72. Further, the IC50 in experiment [2] is > 80 µM (inactive).
Consider `O=S(=O)(Nc1cccc2cccnc12)c1ccccc1`, for which the negative logarithm of the IC50 (pIC50) in experiment [1] (dose range 1) was 5.19; in experiment [1] (setting [5]) it was 5.00; in experiment [1] (run 2, dose range 1), 4.97; in experiment [1] (run 3, dose range 1) it was 4.90; in experiment [2], less than 4.10; in experiment [3] (CCR6, dose range 1), 5.12. Moreover, the negative-log IC50 (pIC50) in experiment [3] (setting [6]) was 5.01; in experiment [3] (CCR6, run 2, dose range 1), 4.93; in experiment [4] (setting [7]) it was 4.84; in experiment [4] (CXCR6, run 2, dose range 1), 4.84. Besides, in experiment [2], the IC50 was > 80 µM (inactive). In addition, in experiment [4] (CXCR6, dose range 1), the IC50 result was “inactive”. Moreover, the inhibition in experiment [4] (CXCR6, run 1, dose range 2, at 80 µM (top of the series)) was 116%.
As to `C/C(=N\NC(=O)C1COc2ccccc2O1)c1ccccn1` (stereo unspecified), the pIC50 in experiment [1] (dose range 1) is 5.23; in experiment [1] (setting [5]) it was 5.25; in experiment [1] (run 2, dose range 1), 5.33; in experiment [1] (run 3, dose range 1) it was 5.21; in experiment [2] it was less than 4.10; in experiment [3] (CCR6, dose range 1), 5.49. Moreover, the pIC50 in experiment [3] (setting [6]) was 5.41; in experiment [3] (CCR6, run 2, dose range 1) it was 5.35; in experiment [4] (setting [7]), 4.81; in experiment [4] (CXCR6, run 1, dose range 2), 5.41; in experiment [4] (CXCR6, run 2, dose range 1) it was 4.90; in experiment [4] (CXCR6, run 2, dose range 2), 5.43. Also, in experiment [2], the IC50 was > 80 µM (inactive). In addition, the IC50 entry in experiment [4] (CXCR6, dose range 1) was “inactive”.

As usually defined, the pIC50 is the negative decadic logarithm of the IC50, by convention in mol/L. As usually defined, the IC50 is the concentration at which inhibition is half-maximal. The inhibition is the drop in the measured response relative to a control, in per cent.
